According to patent US8715678B2, “Method for inhibiting the formation of SET1 family core complexes” (Syracuse University, priority 2008, dated 2014):
Ends that are not written are not given here.

Experiments:
[1] = test system: MLL1-dependent Hox genes (e.g. Hoxc8 and Hoxa9); experiment: Expression of MLL1-dependent Hox genes in HEK293T cells; format: cell-based; settings: 20 micrograms per milliliter, 24 hours
Description: In another embodiment, an inhibitor peptide with a cell penetration sequence is used to treat MLL1-associated leukemia. […] The addition of the inhibitor peptides disclosed herein can help control the degree of upregulation and thereby serve as a treatment for leukemia. Experiments have shown the degree of expression of MLL1-dependent Hox genes (e.g. Hoxc8 and Hoxa9) are decreased in the presence of inhibitor peptide SEQ ID NO. 34 in HEK293T cells treated with 20 micrograms per milliliter of the inhibitor peptide for 24 hours.

[2] = test system: mouse embryonic carcinoma cell nuclei; experiment: Fluorescence localization and nuclear phenotype in mouse embryonic carcinoma cells; format: cell-based
[3] = test system: H3K4 trimethylation / H3K27 trimethylation of H3; experiment: Western blot of H3K4 trimethylation to H3K27 trimethylation ratio in HEK293T cells; format: cell-based; settings: 20 micrograms per milliliter, 24 hours, normalized to total histone H3
Protocol: HEK293T cells were treated with 20 micrograms per milliliter of the inhibitor peptide (SEQ ID NO. 34) for 24 hours and immune-blotted using antibodies specific for H3K4 trimethylation, H3K27 trimethylation, and histone H3 (to provide for normalization). Western blots were quantified based on band intensity using image analysis software and normalized as a function of total histone H3. Tubulin was used as a loading control and its level remained constant between the two samples.

WDR5 = biological target: T1, WDR5 (Homo sapiens, UniProt P61964); experiment: Binding of N-acetylated three residue peptide (method not given); settings: acetylated on the N-terminus
T1 construct: pMCGS7 plasmids encoding full-length WDR5 as N-terminal His6 fusions were obtained; His6 (N); made in house; host or cells: Escherichia coli (Rosetta II, Novagen)

binding of three residue peptide (WDR5) | Substance | degree of expression of MLL1-dependent Hox genes (Hoxc8 and Hoxa9) [1] | localization of fluorescent signature ([2]; mouse embryonic carcinoma cells) | effect on metaphase cells and nuclear shape ([2]; within 48 hours of treatment) | ratio of H3K4 trimethylation to H3K27 trimethylation [3]
 | Ac-VNPTGCARSEPK-Ahx-K(FTIC)-GRKKRRQRRRAP-CONH2 [SEQ ID NO. 34] | decreased | rapidly localized to eurchromatic regions of mouse embryonic carcinoma cell nuclei | metaphase cells are absent and many cell nuclei have adopted altered shapes | lowering of the ratio of H3K4 to H3K27
capable of binding | acART (Ac-Ala-Arg-Thr) [three residue peptide (ARX2)] |  |  |  | 
